According to patent publication US8648066B2 (Exelixis, Inc., priority 2009, dated 2014):

Molecular target: mTOR/GbL/Raptor (mTORC1) (Homo sapiens, UniProt P42345)
Experiment: mTOR/GbL/Raptor (mTORC1) ELISA assay
Type: biochemical
Settings: phosphorylation of 4E-BP1; 0.2 nM mTORC1, 10 μM ATP; read-out: IC50 in this assay (mTORC1 ELISA)
Procedure, shortened: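 ELISA read-out: phospho-4E-BP1 captured on Ni-chelate plates and detected with anti-phospho antibody plus HRP-anti-IgG luminescence. The kinase step ran 120 min at ambient temperature with 0.2 nM human mTORC1, 10 µM ATP, 50 nM His-4E-BP1, 10 mM MnCl2, pH 7.2 HEPES.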

Structure (SMILES)	IC50 [nM]
CCNc1ncnc(N2CCOc3ccc(-c4cnc5nc(C)[nH]c5c4)cc3C2)c1C [Example 639, N-ethyl-5-methyl-6-[7-(2-methyl-1H-imidazo[4,5-b]pyridin-6-yl)-2,3-dihydro-1,4-benzoxazepin-4(5H)-yl]pyrimidin-4-amine]	250 to 1000
CCc1c(C)nc(C)nc1N1CCOc2ccc(-c3cnc4nc(C)[nH]c4c3)cc2C1 [Example 469, 4-(5-ethyl-2,6-dimethylpyrimidin-4-yl)-7-(2-methyl-1H-imidazo[4,5-b]pyridin-6-yl)-2,3,4,5-tetrahydro-1,4-benzoxazepine]	50 to 250
Cc1ncc(-c2ccc3c(c2)CN(c2ncnc4c2CCC(C)(C)C4)CCO3)s1 [Example 152, 4-(7,7-dimethyl-5,6,7,8-tetrahydroquinoazlin-4-yl)-7-(2-methyl-1,3-thiazol-5-yl)-2,3,4,5-tetrahydro-1,4-benzoxazepine]	250 to 1000
CN(C)CCNS(=O)(=O)c1cc(-c2ccc3c(c2)CN(c2ncnc4c2CC(C)(C)CC4)CCO3)cnc1N [Example 423, 2-amino-N-[2-(dimethylamino)ethyl]-5-[4-(6,6-dimethyl-5,6,7,8-tetrahydroquinazolin-4-yl)-2,3,4,5-tetrahydro-1,4-benzoxazepin-7-yl]pyridine-3-sulfonamide]	50 to 250
COc1cc2c(N3CCOc4ccc(-c5cnc6nc(N)[nH]c6c5)cc4C3)ncnc2cc1Br [Example 184, 6-{4-[7-bromo-6-(methyloxy)quinazolin-4-yl]-2,3,4,5-tetrahydro-1,4-benzoxazepin-7-yl}-1H-imidazo[4,5-b]pyridin-2-amine]	250 to 1000
CCc1c(C)nc(CN(C)C)nc1N1CCOc2ccc(-c3cnc4[nH]c(C)nc4c3)cc2C1 [Example 350, 1-{5-ethyl-4-methyl-6-[7-(2-methyl-3H-imidazo[4,5-b]pyridin-6-yl)-2,3-dihydro-1,4-benzoxazepin-4(5H)-yl]pyrimidin}-N,N-dimethylmethanamine]	50 to 250
Cc1nc2ccc(-c3ccc4c(c3)CN(c3ncnc(Nc5ccccc5)c3C)CCO4)cc2[nH]1 [Example 77, 5-methyl-6-[7-(2-methyl-1H-benzimidazol-6-yl)-2,3-dihydro-1,4-benzoxazepine-4(5H)-yl]-N-phenylpyrimidin-4-amine]	1000 to 2000
CCN(C)S(=O)(=O)c1cc(-c2ccc3c(c2)CN(c2ncnc4c2CC(C)(C)CC4)CCO3)cnc1N [Example 395, 2-amino-5-[4-(6,6-dimethyl-5,6,7,8-tetrahydroquinazolin-4-yl)-2,3,4,5-tetrahydro-1,4-benzoxazepin-7-yl]-N-ethyl-N-methylpyridine-3-sulfonamide]	50 to 250
Cc1nc(N2CCOc3ccc(-c4ccc(N)nc4)cc3C2)c2ccccc2n1 [Example 266, 5-[4-(2-methylquinazolin-4-yl)-2,3,4,5-tetrahydro-1,4-benzoxazepin-7-yl]pyridin-2-amine]	250 to 1000
COC(=O)Nc1nc2ncc(-c3ccc4c(c3)CN(c3ccnc5cc(OC)c(OC)cc35)CCO4)cc2[nH]1 [Example 210, methyl (6-{4-[6,7-bis(methyloxy)quinolin-4-yl]-2,3,4,5-tetrahydro-1,4-benzoxazepin-7-yl}-1H-imidazo[4,5-b]pyridin-2-yl)carbamate]	250 to 1000
CC1(C)CCc2ncnc(N3CCOc4ccc(-c5cncc(S(N)(=O)=O)c5)cc4C3)c2C1 [Example 522, 5-[4-(6,6-dimethyl-5,6,7,8-tetrahydroquinazolin-4-yl)-2,3,4,5-tetrahydro-1,4-benzoxazepin-7-yl]pyridin-3-sulfonamide]	250 to 1000
Cc1nc2cc(-c3ccc4c(c3)CN(c3nc(CN(C)C)nc(C)c3Br)CCO4)ccc2[nH]1 [Example 666, 1-{5-bromo-4-methyl-6-[7-(2-methyl-1H-benzimidazol-5-yl)-2,3-dihydro-1,4-benzoxazepin-4(5H)-yl]pyrimidin-2-yl}-N,N-dimethylmethanamine]	≥ 2000
COc1c(Cl)cc2c(N3CCOc4ccc(-c5ccc6nc(C)[nH]c6c5)cc4C3)ncnc2c1OC [Example 42, 4-[6-chloro-7,8-bis(methyloxy)quinazolin-4-yl]-7-(2-methyl-1H-benzimidazol-6-yl)-2,3,4,5-tetrahydro-1,4-benzoxazepine]	250 to 1000

Other lines, results leading:

IC50 [nM]	Structure (SMILES)
≤ 10	CC1(C)CCc2ncnc(N3CCOc4ccc(-c5cnc6sc(N)nc6c5)cc4C3)c2C1 [Example 248, 6-[4-(6,6-dimethyl-5,6,7,8-tetrahydroquinazolin-4-yl)-2,3,4,5-tetrahydro-1,4-benzoxazepin-7-yl][1,3]thiazolo[5,4-b]pyridin-2-amine]
≤ 10	Cc1ncnc(N2CCOc3ccc(-c4ccc(C(=O)NCC(F)F)cc4)cc3C2)c1Cc1ccc(F)cc1 [Example 174, N-(2,2-difluoroethyl)-4-(4-{5-[(4-fluorophenyl)methyl]-6-methylpyrimidin-4-yl}-2,3,4,5-tetrahydro-1,4-benzoxazepin-7-yl)benzamide]
10 to 50	CN(C)c1ncc(-c2ccc3c(c2)CN(c2ncnc4c2CC(C)(C)CC4)CCO3)cc1NS(C)(=O)=O [Example 619, N-{2-(dimethylamino)-5-[4-(6,6-dimethyl-5,6,7,8-tetrahydroquinazolin-4-yl)-2,3,4,5-tetrahydro-1,4-benzoxazepin-7-yl]pyridin-3-yl}methanesulfonamide]
≤ 10	Cc1nc2ncc(-c3ccc4c(c3)CN(c3ncnc5c3CC(C)(C)CC5)CCO4)cc2[nH]1 [Example 234, 4-(6,6-dimethyl-5,6,7,8-tetrahydroquinazolin-4-yl)-7-(2-methyl-1H-imidazo[4,5-b]pyridin-6-yl)-2,3,4,5-tetrahydro-1,4-benzoxazepine]
10 to 50	CC1(C)CCc2ncnc(N3CCOc4ccc(-c5cnc(N)c(S(=O)(=O)NCC6(N)CC6)c5)cc4C3)c2C1 [Example 418, 2-amino-N-[(1-aminocyclopropyl)methyl]-5-[4-(6,6-dimethyl-5,6,7,8-tetrahydroquinazolin-4-yl)-2,3,4,5-tetrahydro-1,4-benzoxazepin-7-yl]pyridine-3-sulfonamide]
≤ 10	CC1(C)CCc2ncnc(N3CCOc4ccc(-c5cnc(N)c(S(=O)(=O)NCC(O)C(F)(F)F)c5)cc4C3)c2C1 (centres unmarked) [Example 373, 2-amino-5-[4-(6,6-dimethyl-5,6,7,8-tetrahydroquinazolin-4-yl)-2,3,4,5-tetrahydro-1,4-benzoxazepin-7-yl]-N-(3,3,3-trifluoro-2-hydroxypropyl)pyridine-3-sulfonamide]
10 to 50	CC[C@H]1CCc2c(nc(C)nc2N2CCOc3ccc(-c4cnc5nc(C)[nH]c5c4)cc3C2)C1 [Example 487, 4-[(7S)-7-ethyl-2-methyl-5,6,7,8-tetrahydroquinazolin-4-yl]-7-(2-methyl-1H-imidazo[4,5-b]pyridin-6-yl)-2,3,4,5-tetrahydro-1,4-benzoxazepine]
10 to 50	Cc1nc2ncc(-c3ccc4c(c3)CN(c3ncnc5c3CCC(C(F)(F)F)C5)CCO4)cc2[nH]1 (centres unmarked) [Example 566, 7-(2-methyl-1H-imidazo[4,5-b]pyridin-6-yl)-4-[7-(trifluoromethyl)-5,6,7,8-tetrahydroquinazolin-4-yl]-2,3,4,5-tetrahydro-1,4-benzoxazepine]
10 to 50	CC[C@H]1CCc2c(nc(CN(C)C)nc2N2CCOc3ccc(-c4cnc5nc(C)[nH]c5c4)cc3C2)C1 [Example 334, 1-{(7S)-7-ethyl-4-[7-(2-methyl-1H-imidazo[4,5-b]pyridin-6-yl)-2,3-dihydro-1,4-benzoxazepin-4(5H)-yl]-5,6,7,8-tetrahydroquinazolin-2-yl}-N,N-dimethylmethanamine]
≤ 10	CNS(=O)(=O)c1cc(-c2ccc3c(c2)CN(c2ncnc4c2CC(C)(C)CC4)CCO3)cnc1N [Example 397, 2-amino-5-[4-(6,6-dimethyl-5,6,7,8-tetrahydroquinazolin-4-yl)-2,3,4,5-tetrahydro-1,4-benzoxazepin-7-yl]-N-methylpyridine-3-sulfonamide]
≤ 10	CC1=Cc2ncnc(N3CCOc4ccc(-c5cnc6nc(C)[nH]c6c5)cc4C3)c2CC1(C)C [Example 553]
≤ 10	CCc1nc2ncc(-c3ccc4c(c3)CN(c3nc(C)nc5c3CC(C)(C)CC5)CCO4)cc2[nH]1 [Example 548, 7-(2-ethyl-1H-imidazo[4,5-b]pyridin-6-yl)-4-(2,6,6-trimethyl-5,6,7,8-tetrahydroquinazolin-4-yl)-2,3,4,5-tetrahydro-1,4-benzoxazepine]
10 to 50	Cc1nc2ncc(-c3ccc4c(c3)CN(c3nc(CN5CCC(F)(F)C5)nc5c3CC(C)(C)CC5)CCO4)cc2[nH]1 [Example 503, 4-{2-[(3,3-difluoropyrrolidin-1-yl)methyl]-6,6-dimethyl-5,6,7,8-tetrahydroquinazolin-4-yl}-7-(2-methyl-1H-imidazo[4,5-b]pyridin-6-yl)-2,3,4,5-tetrahydro-1,4-benzoxazepine]
10 to 50	Nc1nc2ncc(-c3ccc4c(c3)CN(c3ncnc5ccc(F)cc35)CCO4)cc2[nH]1 [Example 187, 6-[4-(6-fluoroquinazolin-4-yl)-2,3,4,5-tetrahydro-1,4-benzoxazepin-7-yl]-1H-imidazo[4,5-b]pyridin-2-amine]
10 to 50	CCOc1ncc(-c2ccc3c(c2)CN(c2ncnc4c2CC(C)(C)CC4)CCO3)cc1NS(C)(=O)=O [Example 626, N-{5-[4-(6,6-dimethyl-5,6,7,8-tetrahydroquinazolin-4-yl)-2,3,4,5-tetrahydro-1,4-benzoxazepin-7-yl]-2-(ethyloxy)pyridin-3-yl}methanesulfonamide]
≤ 10	CC(O)c1nc2cc(-c3ccc4c(c3)CN(c3ncnc5c3CC(C)(C)CC5)CCO4)cnc2[nH]1 (centres unmarked) [Example 252, 1-{6-[4-(6,6-dimethyl-5,6,7,8-tetrahydroquinazolin-4-yl)-2,3,4,5-tetrahydro-1,4-benzoxazepin-7-yl]-3H-imidazo[4,5-b]pyridin-2-yl}ethanol]
